Measured values as given in the NIST ThermoML archive (doi:10.1021/acs.jced.6b00959).

Assay: molar heat capacity at constant pressure
Conditions: Liquid, Flow calorimetry

C=C(F)C(F)(F)F [2,3,3,3-tetrafluoro-1-propene]
Conditions	molar heat capacity at constant pressure [J/K/mol]
303.53 K, 2030 kPa	157.15
303.55 K, 2530 kPa	156.01
303.58 K, 1570 kPa	160.11
303.6 K, 8010 kPa	146.09
303.6 K, 8490 kPa	146.2
303.6 K, 10010 kPa	145.75
303.61 K, 6980 kPa	146.66
303.61 K, 7490 kPa	146.89
303.61 K, 8980 kPa	145.75
303.61 K, 9470 kPa	145.75
303.67 K, 10990 kPa	144.49
303.72 K, 3040 kPa	154.41
303.72 K, 10520 kPa	144.95
303.73 K, 5000 kPa	150.88
303.74 K, 3530 kPa	154.18
303.75 K, 4020 kPa	153.16
303.75 K, 5520 kPa	150.19
303.77 K, 6510 kPa	148.6
303.79 K, 11450 kPa	144.03
303.79 K, 12070 kPa	143.69
303.8 K, 5980 kPa	148.82
303.81 K, 4520 kPa	151.45
313.61 K, 6020 kPa	154.3
313.63 K, 5000 kPa	157.04
313.64 K, 4490 kPa	158.18
313.64 K, 7500 kPa	151.68
313.64 K, 7980 kPa	151.11
313.65 K, 8490 kPa	150.65
313.66 K, 1510 kPa	166.04
313.66 K, 4000 kPa	159.77
313.66 K, 6990 kPa	152.82
313.67 K, 2010 kPa	165.36
313.69 K, 2510 kPa	165.02
313.69 K, 3000 kPa	164.11
313.69 K, 6500 kPa	153.96
313.7 K, 9500 kPa	149.85
313.7 K, 10010 kPa	149.51
313.7 K, 11460 kPa	147.8
313.72 K, 3510 kPa	162.62
313.72 K, 8970 kPa	150.31
313.72 K, 10500 kPa	148.94
313.72 K, 10980 kPa	148.6
313.72 K, 12040 kPa	147.46
313.79 K, 5490 kPa	154.53
323.62 K, 2020 kPa	170.26
323.63 K, 6940 kPa	155.67
323.64 K, 7520 kPa	154.98
323.64 K, 8000 kPa	154.41
323.64 K, 8510 kPa	153.73
323.65 K, 2500 kPa	168.67
323.65 K, 9540 kPa	152.25
323.66 K, 8960 kPa	153.39
323.66 K, 9990 kPa	152.02
323.68 K, 3010 kPa	167.41
323.68 K, 10980 kPa	151.11
323.69 K, 3510 kPa	165.93
323.69 K, 4520 kPa	162.51
323.69 K, 6490 kPa	157.61
323.69 K, 10530 kPa	151.79
323.7 K, 11470 kPa	150.31
323.71 K, 3990 kPa	164.79
323.71 K, 5020 kPa	161.37
323.71 K, 5500 kPa	159.89
323.71 K, 5990 kPa	159.09
323.73 K, 12010 kPa	150.08
333.61 K, 5490 kPa	165.47
333.63 K, 3000 kPa	179.5
333.63 K, 5980 kPa	164.68
333.66 K, 3480 kPa	177.56
333.66 K, 4500 kPa	170.72
333.66 K, 7020 kPa	161.71
333.67 K, 2080 kPa	185.77
333.68 K, 2520 kPa	183.95
333.68 K, 5000 kPa	169.12
333.68 K, 6510 kPa	162.74
333.69 K, 7500 kPa	161.03
333.69 K, 9010 kPa	159.09
333.69 K, 9990 kPa	156.69
333.71 K, 4040 kPa	175.4
333.72 K, 8010 kPa	160.68
333.72 K, 8500 kPa	159.66
333.72 K, 9490 kPa	157.61
333.79 K, 10520 kPa	155.21
333.79 K, 11000 kPa	154.75
333.82 K, 11480 kPa	154.07
333.82 K, 12030 kPa	153.61
343.67 K, 10510 kPa	157.83
343.68 K, 2530 kPa	204.93
343.68 K, 3510 kPa	187.26
343.68 K, 11500 kPa	156.58
343.69 K, 11060 kPa	156.92
343.7 K, 4490 kPa	178.48
343.7 K, 9470 kPa	159.89
343.7 K, 12010 kPa	155.89
343.71 K, 7000 kPa	165.47
343.72 K, 6040 kPa	169.35
343.73 K, 6510 kPa	168.55
343.73 K, 7500 kPa	164.45
343.73 K, 7980 kPa	163.76
343.74 K, 3990 kPa	183.49
343.75 K, 5020 kPa	175.74
343.75 K, 10020 kPa	159.54
343.77 K, 8520 kPa	163.19
343.79 K, 3010 kPa	196.61
343.8 K, 9010 kPa	162.51
343.81 K, 5560 kPa	173.23
353.69 K, 10520 kPa	163.99
353.71 K, 6510 kPa	177.79
353.71 K, 8500 kPa	169.24
353.73 K, 4510 kPa	196.61
353.73 K, 4990 kPa	190.11
353.73 K, 5500 kPa	185.77
353.73 K, 11010 kPa	162.85
353.74 K, 8990 kPa	168.33
353.75 K, 6990 kPa	175.97
353.76 K, 11520 kPa	162.62
353.77 K, 9530 kPa	166.96
353.78 K, 6040 kPa	182.58
353.78 K, 12010 kPa	161.94
353.79 K, 7490 kPa	173.8
353.79 K, 10010 kPa	165.93
353.81 K, 7990 kPa	172.66
363.69 K, 6030 kPa	189.42
363.73 K, 10520 kPa	167.98
363.74 K, 5480 kPa	198.2
363.75 K, 4510 kPa	225
363.75 K, 7990 kPa	175.85
363.76 K, 7020 kPa	181.78
363.76 K, 10010 kPa	169.12
363.76 K, 11050 kPa	167.3
363.77 K, 6500 kPa	186.46
363.78 K, 4990 kPa	209.38
363.78 K, 7530 kPa	178.7
363.78 K, 8990 kPa	172.09
363.78 K, 11500 kPa	166.96
363.79 K, 8510 kPa	174.26
363.8 K, 9490 kPa	171.06
363.83 K, 12080 kPa	166.96
373.09 K, 4510 kPa	297.19
373.19 K, 4990 kPa	241.54
373.24 K, 5480 kPa	217.82
373.28 K, 5980 kPa	202.31
373.3 K, 6490 kPa	191.25
373.3 K, 7000 kPa	185.09
373.3 K, 7520 kPa	180.3
373.32 K, 8030 kPa	177.33
373.32 K, 8510 kPa	174.94
373.32 K, 8990 kPa	172.32
373.34 K, 9510 kPa	171.52
373.36 K, 9990 kPa	170.95
373.38 K, 10530 kPa	169.58
373.39 K, 11020 kPa	168.44
373.4 K, 11510 kPa	167.87
373.42 K, 11980 kPa	167.41
